Here are results for twelve compounds from paper PMC9737537, “In Vitro Susceptibility of HIV Isolates with High Growth Capability to Antiretroviral Drugs” (International Journal of Molecular Sciences, 2022).

Where two headings read alike, the source gives them in different places.

Holding throughout (assay type): cell-based
The test system of assay [1] is HIV isolates with high growth capability. The assay can be described thus: Antiretroviral drug response (HIV-RNA copies in PHA-PBMC culture, 7 days), pooled HIV isolates. Conditions: for susceptibility of isolates / IC90 values relative to Cmin / Cmax: higher growth capability, without any known drug resistance-related mutation; for suppression of viral yield in vitro: HIV isolates of Figure 5. From the text: (§1) The following nucleotide reverse transcriptase inhibitors were used: emtricitabine (Tokyo Chemical Industry, Tokyo, Japan), lamivudine (Tokyo Chemical Industry, Japan), tenofovir (Selleck Biotech, Tokyo Japan), tenofovir alafenamide (Selleck Biotech, Japan), tenofovir disoproxil fumarate (Tokyo Chemical Industry, Japan), and zidovudine (FUJIFILM Wako, Tokyo, Japan). As it was reported that tenofovir and its prodrugs (tenofovir disoproxil fumarate and tenofovir alafenamide) are measurable in plasma, the antiviral activity of these three synthetic drugs were assessed in vitro [25, 36]. In addition, one non-nucleotide reverse transcriptase inhibitor, efavirenz (Tokyo Chemical Industry, Japan); two protease inhibitors, atazanavir (Selleck Biotech, Japan) and lopinavir (Funakoshi Frontiers in Life Science, Tokyo, Japan); and four integrase inhibitors, bictegravir (Selleck Biotech, Japan), dolutegravir (Selleck Biotech, Japan), elvitegravir (EVG, Selleck Biotech, Japan), and raltegravir (Selleck Biotech, Japan) were analyzed. Representative HIV isolates and a laboratory strain of HIVpNL4-3 were screened for antiretroviral drugs. Briefly, PHA-PBMCs (1.5 × 10^6 cells) were pelleted at 1000 g for 5 min, resuspended with an HIV preparation (10^6 copies) in 100 µL volume, and incubated at 37 °C for 1 h. To remove unbound and non-infectious viruses, the cells were washed twice with RPMI1640 medium and then cultured in different concentrations of antiretroviral compounds (1 mL). The culture was carried out for 7 days, as described above, for growth capability assessment. All procedures were performed in triplicate.
To determine the susceptibility of HIV isolates with high growth capability to synthetic antiretroviral compounds, we used the in vitro susceptibility of the virus (IC90) and pharmacokinetics of an antiretroviral agent (compared to reported Cmin and Cmax).
HIV-RNA in the culture medium (140 µL) was extracted using a QIAamp Viral RNA Mini Kit (QIAGEN KK-Japan, Tokyo, Japan) and subjected to quantitative reverse transcription polymerase chain reaction (qRT-PCR). The amount of HIV-RNA was assayed using a Luna Universal One-Step qRT–PCR kit (New England Biolabs Japan, Tokyo, Japan) and forward (GagB-1F, 5′-[…]-3′, HXB2 position: 1359–1388) and reverse (GagB-1R, 5′-[…]-3′, 1500–1474) primers. The PCR signal was assessed by comparison with a standard curve (encompassing 10^2–10^8 copies/reaction of the in vitro-transcribed RNA transcripts).
The IC50 was calculated using a nonlinear regression curve fit of the dose response curves of each transformed drug concentration and normalized viral load (copies/mL) using GraphPad Prism software (version 8.0). The IC90 was determine using the IC50 and Hill slope factor from the curve fit in the online GraphPad calculator (https://www.graphpad.com/quickcalcs/ECanything1/, accessed on 1 October 2022) for effective concentration. The results are expressed as the mean IC90 of three values obtained in triplicate for each isolate.

The test system of assay [2] is HIV isolate DR1509-397. The assay can be described thus: Antiretroviral drug response in PHA-PBMC culture, isolate DR1509-397. As for the experimental part: as §1, with “The activity of 13 synthetic antiretroviral compounds at concentrations ranging from 0.001 to 20 μM was evaluated against HIV isolates with diverse growth capabilities and without any known drug resistance-related mutation. The” for “The”, “Briefly, PHA-PBMCs (1.5 × 10^6 cells) were pelleted at 1000 g for 5 min, resuspended with an HIV preparation (10^6 copies) in 100 µL volume, and incubated at 37 °C for 1 h. To remove unbound and non-infectious viruses, the cells were washed twice with RPMI1640 medium and then cultured in different concentrations of antiretroviral compounds (1 mL). The culture was carried out for 7 days, as described above, for growth capability assessment. All procedures were performed in triplicate.” left out
HIV-RNA in the culture medium (140 µL) was extracted using a QIAamp Viral RNA Mini Kit (QIAGEN KK-Japan, Tokyo, Japan) and subjected to quantitative reverse transcription polymerase chain reaction (qRT-PCR). […] The PCR signal was assessed by comparison with a standard curve (encompassing 10^2–10^8 copies/reaction of the in vitro-transcribed RNA transcripts).
The IC50 was calculated using a nonlinear regression curve fit of the dose response curves of each transformed drug concentration and normalized viral load (copies/mL) using GraphPad Prism software (version 8.0). […] The results are expressed as the mean IC90 of three values obtained in triplicate for each isolate.

In assay [3] the test system is HIV isolate DR1605-400. Nature of the assay: Antiretroviral drug response in PHA-PBMC culture, isolate DR1605-400. As to conditions: Human immunodeficiency virus 1, 168 h, high growth capability, no known drug resistance-related mutation, 7 days. As for the experimental part: as §1, with “The activity of 13 synthetic antiretroviral compounds at concentrations ranging from 0.001 to 20 μM was evaluated against HIV isolates with diverse growth capabilities and without any known drug resistance-related mutation. The” for “The”, “Briefly, PHA-PBMCs (1.5 × 10^6 cells) were pelleted at 1000 g for 5 min, resuspended with an HIV preparation (10^6 copies) in 100 µL volume, and incubated at 37 °C for 1 h. To remove unbound and non-infectious viruses, the cells were washed twice with RPMI1640 medium and then cultured in different concentrations of antiretroviral compounds (1 mL). The culture was carried out for 7 days, as described above, for growth capability assessment. All procedures were performed in triplicate.” left out

Assay [4] has as its system HIV isolate S1506-064. The assay can be described thus: Antiretroviral drug response in PHA-PBMC culture, isolate S1506-064. As to conditions: Human immunodeficiency virus 1, 168 h, high growth capability, no known mutation against tenofovir, 7 days. As for the experimental part: as §1, with “The activity of 13 synthetic antiretroviral compounds at concentrations ranging from 0.001 to 20 μM was evaluated against HIV isolates with diverse growth capabilities and without any known drug resistance-related mutation. The” for “The”, “Briefly, PHA-PBMCs (1.5 × 10^6 cells) were pelleted at 1000 g for 5 min, resuspended with an HIV preparation (10^6 copies) in 100 µL volume, and incubated at 37 °C for 1 h. To remove unbound and non-infectious viruses, the cells were washed twice with RPMI1640 medium and then cultured in different concentrations of antiretroviral compounds (1 mL). The culture was carried out for 7 days, as described above, for growth capability assessment. All procedures were performed in triplicate.” left out

The subject of assay [5] is HIV isolate DR1606-521. Nature of the assay: Antiretroviral drug response in PHA-PBMC culture, isolate DR1606-521. As for the experimental part: as §1, with “The activity of 13 synthetic antiretroviral compounds at concentrations ranging from 0.001 to 20 μM was evaluated against HIV isolates with diverse growth capabilities and without any known drug resistance-related mutation. The” for “The”, “Briefly, PHA-PBMCs (1.5 × 10^6 cells) were pelleted at 1000 g for 5 min, resuspended with an HIV preparation (10^6 copies) in 100 µL volume, and incubated at 37 °C for 1 h. To remove unbound and non-infectious viruses, the cells were washed twice with RPMI1640 medium and then cultured in different concentrations of antiretroviral compounds (1 mL). The culture was carried out for 7 days, as described above, for growth capability assessment. All procedures were performed in triplicate.” left out

The test system of assay [6] is HIV isolate DR1510-726. The assay can be described thus: Antiretroviral drug response in PHA-PBMC culture, isolate DR1510-726. Conditions: Human immunodeficiency virus 1, 168 h, isolate with drug resistance-related mutation, 7 days. As for the experimental part:
as §1, with “The activity of 13 synthetic antiretroviral compounds at concentrations ranging from 0.001 to 20 μM was evaluated against HIV isolates with diverse growth capabilities and without any known drug resistance-related mutation. The” for “The”, “Briefly, PHA-PBMCs (1.5 × 10^6 cells) were pelleted at 1000 g for 5 min, resuspended with an HIV preparation (10^6 copies) in 100 µL volume, and incubated at 37 °C for 1 h. To remove unbound and non-infectious viruses, the cells were washed twice with RPMI1640 medium and then cultured in different concentrations of antiretroviral compounds (1 mL). The culture was carried out for 7 days, as described above, for growth capability assessment. All procedures were performed in triplicate.” left out

In assay [7] the test system is HIV isolate DR1606-479. Nature of the assay: Antiretroviral drug response in PHA-PBMC culture, isolate DR1606-479. As to conditions: Human immunodeficiency virus 1, 168 h, isolate with drug resistance-related mutation, 7 days. As for the experimental part: as §1, with “The activity of 13 synthetic antiretroviral compounds at concentrations ranging from 0.001 to 20 μM was evaluated against HIV isolates with diverse growth capabilities and without any known drug resistance-related mutation. The” for “The”, “Briefly, PHA-PBMCs (1.5 × 10^6 cells) were pelleted at 1000 g for 5 min, resuspended with an HIV preparation (10^6 copies) in 100 µL volume, and incubated at 37 °C for 1 h. To remove unbound and non-infectious viruses, the cells were washed twice with RPMI1640 medium and then cultured in different concentrations of antiretroviral compounds (1 mL). The culture was carried out for 7 days, as described above, for growth capability assessment. All procedures were performed in triplicate.” left out

The mark [8] stands for this setting: Human immunodeficiency virus 1, lowest among the 13 compounds, isolate not specified, read-out: lowest IC90 values.
[9] abbreviates: Human immunodeficiency virus 1, read-out: 90% inhibitory concentration (IC90).

Take `O=C(NCc1c(F)cc(F)cc1F)c1cn2c(c(O)c1=O)C(=O)N1[C@H]3CC[C@H](C3)O[C@@H]1C2` [bictegravir]: the susceptibility of isolates entry in assay [1] is on record as “retained susceptibility with lower IC90 values”.
Take `CC(C)OC(=O)[C@H](C)N[P@](=O)(CO[C@H](C)Cn1cnc2c(N)ncnc21)Oc1ccccc1` [tenofovir alafenamide]: the IC90 in assay [1] (setting [8]) was determined as 0.3 ± 0.23 nM. Besides, the susceptibility of isolates entry in assay [1] is on record as “retained susceptibility with lower IC90 values”. For the same compound, the “activity against resistant isolates” value in assay [1] (isolates with drug resistance-related mutations in tenofovir disoproxil fumarate) is on record as “active”.
For `Nc1nc(=O)n([C@@H]2CS[C@H](CO)O2)cc1F` [emtricitabine], in assay [1] (setting [9]), the IC90 came to 680 ± 370 nM. Moreover, the “IC90 values relative to Cmin / Cmax” value in assay [1] is listed as “close to or above Cmin”.
In the case of `C[C@H](Cn1cnc2c(N)ncnc21)OCP(=O)(O)O` [tenofovir], the IC90 turned out to be 2050 ± 400 nM in assay [1] (setting [9]); 2000 ± 400 nM in assay [2] (Human immunodeficiency virus 1, 168 h, high growth capability, no known drug resistance-related mutation, PHA-PBMC, 7 days, read-out: IC90); 1900 ± 40 nM in assay [2] (Human immunodeficiency virus 1, screened using two additional blood sources (three different blood sources, Figure 2B), read-out: mean IC90); 1400 ± 870 nM in assay [3]; 2800 ± 470 nM in assay [4]; 8.3 ± 0.12 µM in assay [5] (Human immunodeficiency virus 1, 168 h, isolate with drug resistance-related mutation, PHA-PBMC, 7 days, read-out: IC90). Further, the IC90 in assay [5] (Human immunodeficiency virus 1, tenofovir-resistant isolate, above Cmax (Figure 4), read-out: concentration required to fully suppress the number of viral copies (printed as IC90)) is 10 µM; in assay [6], 7.7 ± 0.06 µM; in assay [7], 8.5 ± 0.1 µM. The “IC90 values relative to Cmin / Cmax” value in assay [1] is reported as “above Cmax”. Moreover, in assay [2] (tenofovir at 1 μM (close to Cmax)), the “virus production in the presence of drug” value was “hardly showed the decrease in virus production”.
Regarding `Cc1cn([C@H]2C[C@H](N=[N+]=[N-])[C@@H](CO)O2)c(=O)[nH]c1=O` [zidovudine], in assay [1] (setting [8]), the IC90 is 1.5 ± 1.11 nM. In addition, the susceptibility of isolates entry in assay [1] is reported as “retained susceptibility with lower IC90 values”.
On to `Nc1ccn([C@@H]2CS[C@H](CO)O2)c(=O)n1` [lamivudine], for which the IC90 in assay [1] (setting [9]) was determined as 6830 ± 3960 nM. Moreover, in assay [1], the “IC90 values relative to Cmin / Cmax” value is recorded as “close to or above Cmin”.
Take `Cc1nnc(C(=O)NC(C)(C)c2nc(C(=O)NCc3ccc(F)cc3)c(O)c(=O)n2C)o1` [raltegravir]: the susceptibility of isolates entry in assay [1] is listed as “retained susceptibility with lower IC90 values”.
For `COC(=O)N[C@H](C(=O)N[C@@H](Cc1ccccc1)[C@@H](O)CN(Cc1ccc(-c2ccccn2)cc1)NC(=O)[C@@H](NC(=O)OC)C(C)(C)C)C(C)(C)C` [atazanavir], in assay [1], the “suppression of viral yield in vitro” value is reported as “remarkably suppressed the viral yield” and the susceptibility of isolates result is “retained susceptibility with lower IC90 values”. Moreover, in assay [1] (setting [8]), the IC90 amounted to 1.3 ± 1.12 nM.
`Cc1cccc(C)c1OCC(=O)N[C@@H](Cc1ccccc1)[C@@H](O)C[C@H](Cc1ccccc1)NC(=O)[C@H](C(C)C)N1CCCNC1=O` [lopinavir]: the susceptibility of isolates entry in assay [1] is “retained susceptibility with lower IC90 values”.
As to `O=C1Nc2ccc(Cl)cc2[C@@](C#CC2CC2)(C(F)(F)F)O1` [efavirenz], the IC90 in assay [1] (setting [9]) was determined as 3650 ± 770 nM. The “IC90 values relative to Cmin / Cmax” value in assay [1] was “close to or above Cmin”. In addition, the “IC90 relative to Cmin” value in assay [1] (isolates both with and without any known drug resistance-related mutation (Figure 5)) is listed as “above Cmin”.
As for `COc1cc2c(cc1Cc1cccc(Cl)c1F)c(=O)c(C(=O)O)cn2[C@H](CO)C(C)C` [elvitegravir], the susceptibility of isolates result in assay [1] is “retained susceptibility with lower IC90 values”.
Consider `C[C@@H]1CCO[C@H]2Cn3cc(C(=O)NCc4ccc(F)cc4F)c(=O)c(O)c3C(=O)N12` [dolutegravir], for which, in assay [1], the “suppression of viral yield in vitro” value is listed as “remarkably suppressed the viral yield” and the susceptibility of isolates result was “retained susceptibility with lower IC90 values”. Also, the IC90 in assay [1] (setting [8]) came to 1.1 ± 0.72 nM.
